Results taken from publication PMC2852483 (Molecular cancer therapeutics, 2010).
Numbered stars: 1 amine (or outer) side, 2 acyl side, 3 side chain; on linkers, the order of the positions; unused ones are H or OH. Square brackets hold non-standard residues; d marks the D form. Side chains are listed from the residue outwards. Peptide text beside a SMILES is read from it. * marks the point of attachment. NOTA(2S-Bn(4-NHCS)) = O=C(O)CN1CCN(CC(=O)O)C[C@H](Cc2ccc(NC(=S)*)cc2)N(CC(=O)O)CC1; NH(2-(imidazol-4-yl)ethyl) = c1ncc(CCN*)[nH]1; Suc = O=C(CCC(=O)[*:2])[*:1]

Legend:
[1] = parameters: species or system nude BALB/c mice; conditions: mouse, in vivo, 5 MBq
[2] = tested on: s.c. CEA-expressing LS174T tumor; parameters: species or system nude BALB/c mice; conditions: mouse

tissue uptake [1]	stability in vivo [2]	tumor uptake in non-pretargeted mice ([2]; in vivo)	Compound
0.54 ± 0.2 %ID/g	–	–	C[C@@H](NC(=S)Nc1ccc(C[C@H]2CN(CC(=O)O)CCN(CC(=O)O)CCN2CC(=O)O)cc1)C(=O)N[C@H](CCCCNC(=O)CNC(=O)CCC(=O)NCCc1c[nH]cn1)C(=O)N[C@H](Cc1ccc(O)cc1)C(=O)N[C@H](CCCCNC(=O)CNC(=O)CCC(=O)NCCc1c[nH]cn1)C(N)=O [IMP-449] ({NOTA(2S-Bn(4-NHCS))}-[dA][dK]([Gly-Suc-NH(2-(imidazol-4-yl)ethyl)])[dY][dK]([Gly-Suc-NH(2-(imidazol-4-yl)ethyl)])-NH2; N-terminus and C-terminus assumed)
–	stable in vivo	0.45 ± 0.38 % ID/g	C[C@@H](NC(=S)Nc1ccc(C[C@H]2CN(CC(=O)O)CCN(CC(=O)O)CCN2CC(=O)O)cc1)C(=O)N[C@H](CCCCNC(=O)CNC(=O)CCC(=O)NCCc1c[nH]cn1)C(=O)N[C@H](Cc1ccc(O)cc1)C(=O)N[C@H](CCCCNC(=O)CNC(=O)CCC(=O)NCCc1c[nH]cn1)C(N)=O [^18F-IMP-449] ({NOTA(2S-Bn(4-NHCS))}-[dA][dK]([Gly-Suc-NH(2-(imidazol-4-yl)ethyl)])[dY][dK]([Gly-Suc-NH(2-(imidazol-4-yl)ethyl)])-NH2; N-terminus and C-terminus assumed)
